From the supplement of paper PMC13380429

Legend:
Conditions in all cases: 72 h
Vero E6 [1] = assay: relative viability EC50 (midpoint between 100% and the lowest measured viability); higher = less toxic
U2OS [2] = assay: as above
Calu-3 [3] = assay: as above
Caco-2 [4] = assay: as above
HepG2 [5] = assay: as above
Vero E6 [6] = assay: drug sensitivity score (DSS) for viability; higher = more toxic; extreme values may be limits of the assay
U2OS [7] = assay: as above
Calu-3 [8] = assay: as above
Caco-2 [9] = assay: as above
HepG2 [10] = assay: as above
Vero E6 [11] = assay: cell viability relative to DMSO; higher = less toxic
U2OS [12] = assay: as above
Calu-3 [13] = assay: as above
Caco-2 [14] = assay: as above
HepG2 [15] = assay: as above

Structure (SMILES)	relative viability EC50 (Vero E6 [1]) [µM]	relative viability EC50 (U2OS [2]) [µM]	relative viability EC50 (Calu-3 [3]) [µM]	relative viability EC50 (Caco-2 [4]) [µM]	relative viability EC50 (HepG2 [5]) [µM]	drug sensitivity score (Vero E6 [6])	drug sensitivity score (U2OS [7])	drug sensitivity score (Calu-3 [8])	drug sensitivity score (Caco-2 [9])	drug sensitivity score (HepG2 [10])	cell viability (Vero E6 [11]; 1 nM) [%]	cell viability (Vero E6 [11]; 10 nM) [%]	cell viability (Vero E6 [11]; 100 nM) [%]	cell viability (Vero E6 [11]; 1000 nM) [%]	cell viability (Vero E6 [11]; 10000 nM) [%]	cell viability (U2OS [12]; 1 nM) [%]	cell viability (U2OS [12]; 10 nM) [%]	cell viability (U2OS [12]; 100 nM) [%]	cell viability (U2OS [12]; 1000 nM) [%]	cell viability (U2OS [12]; 10000 nM) [%]	cell viability (Calu-3 [13]; 1 nM) [%]	cell viability (Calu-3 [13]; 10 nM) [%]	cell viability (Calu-3 [13]; 100 nM) [%]	cell viability (Calu-3 [13]; 1000 nM) [%]	cell viability (Calu-3 [13]; 10000 nM) [%]	cell viability (Caco-2 [14]; 1 nM) [%]	cell viability (Caco-2 [14]; 10 nM) [%]	cell viability (Caco-2 [14]; 100 nM) [%]	cell viability (Caco-2 [14]; 1000 nM) [%]	cell viability (Caco-2 [14]; 10000 nM) [%]	cell viability (HepG2 [15]; 1 nM) [%]	cell viability (HepG2 [15]; 10 nM) [%]	cell viability (HepG2 [15]; 100 nM) [%]	cell viability (HepG2 [15]; 1000 nM) [%]	cell viability (HepG2 [15]; 10000 nM) [%]
CCCCS(=O)(=O)N[C@@H](Cc1ccc(OCCCCC2CCNCC2)cc1)C(=O)O [tirofiban]	> 10	> 10	> 10	> 10	> 10	0	0	0	0	0	94.8	93.5	93.7	86.3	101	95.5	98.5	98.7	101	105	94.5	84.1	96.3	105	110	94	99.9	98.3	104	107	99.1	102	104	91.5	99.6
CN1CCc2c(c3ccccc3n2Cc2ccc(C(=O)NO)cc2)C1 [tubastatin-A]	> 10	> 10	> 10	> 10	2.02	0.6	1	1.2	0	5	98.7	102	101	102	78.3	102	97	99.3	89.2	84	108	93.5	99.6	89.9	81.5	97.2	91.2	99	93.3	88.9	107	104	90.1	90.9	36.9
CN1CCC(COc2cnc(-c3cccc(Cn4nc(-c5cccc(C#N)c5)ccc4=O)c3)nc2)CC1	> 10	> 10	> 10	> 10	> 10	0	0	0	0	0	102	97.8	95.7	95.9	106	96.3	97.4	106	99	102	103	110	93.3	101	110	96.1	99.7	93.8	100	94.9	106	93.4	106	95.2	99.2
Cc1cc(C(C)(C)C)cc(C)c1CC1=NCCN1 [xylometazoline]	> 10	> 10	> 10	> 10	> 10	0	0	0	0	0	112	98.2	97.3	112	89.8	98.5	93.2	102	97.3	103	98.6	92.4	108	92	108	100	74.7	99.8	97.6	105	107	93.4	89.6	116	101
CCOC(=O)C1=C[C@]2(CC)CCCN3CCc4c(n1c1ccccc41)[C@@H]32 [vinpocetine]	> 10	> 10	> 10	> 10	> 10	0	0	0	0	0	98.8	87.7	95.9	91.8	107	97.6	101	102	101	101	106	95.9	94	105	98.3	92	96.7	91.7	98.4	104	97.7	94	99.7	89.7	108
Nc1nc(=O)n([C@@H]2CS[C@H](CO)O2)cc1F [emtricitabine]	> 10	> 10	> 10	> 10	> 10	0	0	0	0	0.4	102	102	99.5	104	100	97.2	104	92.1	98	98.9	104	88.8	105	96.2	110	107	108	108	98.8	109	104	105	102	97.5	85.5
CN1CCN(c2nc(C3=C(c4c[nH]c5ccccc45)C(=O)NC3=O)c3ccccc3n2)CC1 [sotrastaurin]	> 10	> 10	> 10	> 10	> 10	0	0	0	0.9	0	96.1	99.4	100	99.3	101	95.6	94	103	95	94.1	101	94.6	96	97.6	98.6	96.3	102	99.1	86.8	89.7	108	107	101	104	92.6
COc1cc(C(C)=O)ccc1OCCCN1CCC(c2noc3cc(F)ccc23)CC1 [iloperidone]	> 10	> 10	> 10	> 10	> 10	0	0	0.4	0.8	0	101	96.7	94.7	98	95.6	97.9	97.5	96.6	99.6	91	93	96.7	104	104	80.5	90.7	98.5	84.8	94.9	82	91.9	91.3	94.4	94.2	88.6
C#C[C@]1(O)CC[C@H]2[C@@H]3CCC4=CC(=NO)CC[C@@H]4[C@H]3CC[C@@]21CC (mixture of isomers) [norelgestromin]	> 10	> 10	> 10	> 10	> 10	0	0	0	0	0	102	101	92	99.1	103	99.1	101	94.4	101	98.6	102	95.2	103	93.5	101	89	94.1	91.7	98.3	98.5	95.9	101	105	108	110
C/C=C1\NC(=O)[C@H]2CSSCC/C=C/[C@H](CC(=O)N[C@H](C(C)C)C(=O)N2)OC(=O)[C@H](C(C)C)NC1=O [romidepsin]	0.217	0.0117	0.0068	0.0451	0.0052	20	35.1	37	28.5	39.4	98.1	102	87.8	0.1	-0.1	96.9	55.5	5.6	0.5	0.2	92.5	39.4	8.7	6.3	2.5	104	124	6.6	1.4	0.2	87.1	31.9	0.5	-0.4	0.1
CC(C)N(CCNC(=O)CN1CCCC1=O)C(C)C [pramiracetam]	> 10	> 10	> 10	> 10	> 10	0	0	0	0	0	93.9	97	94.4	99.7	108	98.8	93.2	103	95.6	105	95.7	103	109	100	103	94.6	93.6	114	96.4	98.9	101	100	97.6	107	104
COc1ccc2c(C(=S)N(C)CC(=O)O)cccc2c1C(F)(F)F [tolrestat]	> 10	> 10	> 10	> 10	> 10	0	0	0	0	0	94.7	95.9	93.5	91.2	96.8	94.7	98.4	96.5	98	99.1	103	100	94.5	107	98.6	92.9	95.8	90.6	98.9	89.3	91.2	98.6	94.9	94.2	103
O=C(O)c1cnn(-c2nc3cc(OC(F)(F)F)c(Cl)cc3[nH]2)c1	> 10	> 10	> 10	> 10	> 10	0	0.5	0	0	0	97.2	104	100	103	93.7	101	96	90.3	88.8	93.3	89.5	106	105	102	98.5	104	92.7	97.6	103	93.6	93.8	96.2	91.9	104	88.1
CC(C)(Oc1ccc(Cl)cc1)C(=O)OCCOC(=O)c1cccnc1 [etofibrate]	> 10	> 10	> 10	> 10	> 10	0	0	0	0	0	93.5	99.7	91.7	93.9	98.5	101	94.1	102	94.9	96.6	86.8	89.6	99.1	111	101	95.3	88.1	94	92.1	105	92.7	106	96	99.1	111
